One data set in a line: PET imaging of mice. The following applies: FIG. 3F.
Data set [1] in a line: PET imaging in rhesus macaques, baseline and gabapentin blocking scan. The following applies: for specific (displaceable) binding in brain by PET: coinjection of gabapentin (5 mg/kg); for brain penetration by PET: ~5 mCi i.v.
Text: General imaging procedure: The rhesus monkey was sedated by intramuscular injection of ketamine in its housing facility. Following sedation, the animal was intubated and placed inside a primate transport cart. The animal was transported to the scanner room and laid on the scanner bed in supine position. […] Vital signs including heart rate, respiratory rate, SpO2, exhaled CO2, blood pressure and temperature were continuously monitored for the duration of the scan. One intravenous catheter was placed in the saphenous vein for administration of the tracer. One intraarterial catheter was placed in the posterior tibial artery for blood sampling. […] Selected plasma samples were analyzed for radiometabolites using radioHPLC. MRI was coregistered to the PET/CT and TACs extracted for each brain region defined on an MR atlas.
Study design: We scanned two male rhesus macaques. Each monkey was scanned two times. In the first session, we performed 3h dynamic scans (baseline) of each monkey. On the second session, the monkey underwent a blocking scan with coinjection of gabapentin (5 mg/kg).
Data analysis: Pharmacokinetic modeling using metabolite-corrected arterial input function was performed. Volume of distribution (VT), binding potential (BP) other parameters were calculated.
For data set [2] the following is noted: cited from earlier work; for patients with decreases in self-reported pain: oral.

Read-outs that look alike come from different tables or passages of the source.

Experimental for PET imaging of mice: microPET/CT: mice and rats were anesthetized with isoflurane and positioned in the bed of a microPET/CT instrument. […] Animals were imaged using dynamic PET from 0 to 120 min to provide greatest contrast.
Data analysis: PET images were reconstructed using the scanner software and a rat brain atlas automatically fitted to the data using VivoQuant. Time activity curves (TACs) were extracted for multiple brain regions and spinal cord segments (lumbar, thoracic and cervical cord).

With `NCC1(CC(=O)O)CCC(F)CC1` (stereo not drawn) [cis-4F-GBP], the “brain entry by PET” value in “PET imaging of mice” is on record as “get into the brain”.
`NC[C@]1(CC(=O)O)CC[C@H]([18F])CC1` [cis-[^18F]4F-GBP, cis-[^18F]4-fluoro-gabapentin]: in data set [1], the “specific (displaceable) binding in brain by PET” value is “clear specific (displaceable) binding” and the “brain penetration by PET” value is listed as “significant brain penetration”. For the same compound, in data set [1] (listed as cis isomer), the “specific (displaceable) binding in brain by PET” value is “partial displacement”.
With `NCC1(CC(=O)O)CCCCC1` [gabapentin], the “patients with decreases in self-reported pain” value in data set [2] (diabetic neuropathy) is given as 52%; in data set [2] (postherpetic neuralgia) it was 46%. Moreover, the “subjects with reduction in facial pain” value in data set [2] (trigeminal neuralgia, 43 out of 92 subjects) is given as 46%.
For the compound `NC[C@]1(CC(=O)O)CC[C@@H](F)CC1` [trans-4F-GBP], the “brain entry by PET” value in the data set “PET imaging of mice” is on record as “get into the brain”.
As for `NCC1(CC(=O)O)CCC([18F])CC1` (stereo not drawn) [trans-[^18F]4F-GBP, trans-[^18F]4-fluoro-gabapentin], the “brain penetration by PET” value in data set [1] is listed as “significant brain penetration”.

The values above are taken from patent US20230150922A1, “Fluorinated Derivatives of Gabapentin and Methods of Use Thereof” (The General Hospital Corporation, priority 2020, published 2023).
